Assay [1] relates to KP1004 KPC-2. The experiment in a line: Biapenem potentiation (MPC@1), strain KP1004 KPC-2. The assay is classed as cell-based. As to conditions: minimum BLI concentration inhibiting growth with biapenem 1 μg/mL; tested up to 40 μg/mL. The procedure:
(§1) Biapenem was present in the test medium at 1 μg/mL. […] Table 3 summarizes the BLI potency of biapenem potentiation (MPC@1) for two strains overexpressing class A (KPC) and class D (OXA-48) carbapenemases. Biapenem MIC for each strain is also shown.

Another assay deals with KP1086 OXA-48. Nature of the assay: Biapenem potentiation (MPC@1), strain KP1086 OXA-48. The note with it: minimum BLI concentration inhibiting growth with biapenem 1 μg/mL; tested up to 40 μg/mL. The assay is classed as cell-based. The method, then: as §1
The subject of a further assay is AB1053 OXA-72. Nature of the assay: Meropenem potentiation (MPC@8), strain AB1053 OXA-72. The note with it: minimum BLI concentration inhibiting growth with meropenem 8 μg/mL; tested up to 20 μg/mL. The assay is classed as cell-based, Acinetobacter baumannii.
A further assay deals with AB1054 OXA-23. The experiment in a line: Meropenem potentiation (MPC@8), strain AB1054 OXA-23. The assay is classed as cell-based, Acinetobacter baumannii. As to conditions: minimum BLI concentration inhibiting growth with meropenem 8 μg/mL; tested up to 20 μg/mL.
Assay [2] concerns the target T1, purified class A, C and D enzymes (β-lactamases) (Acinetobacter baumannii, UniProt Q9L4P2).
T1 construct: rows headed: Ki (OXA-23, NCF), uM; other: purified OXA-23; nitrocefin (NCF) as reporter substrate
Nature of the assay: biochemical. The assay is classed as biochemical. The note with it: purified OXA-23; nitrocefin (NCF) as reporter substrate.

In assay [3] the target is purified class A, C and D enzymes (β-lactamases) (Enterobacter cloacae, UniProt P05364). Nature of the assay: biochemical. The assay is classed as biochemical.
Chain of purified class A, C and D enzymes (β-lactamases) (Enterobacter cloacae, UniProt P05364) (P05364 21-381): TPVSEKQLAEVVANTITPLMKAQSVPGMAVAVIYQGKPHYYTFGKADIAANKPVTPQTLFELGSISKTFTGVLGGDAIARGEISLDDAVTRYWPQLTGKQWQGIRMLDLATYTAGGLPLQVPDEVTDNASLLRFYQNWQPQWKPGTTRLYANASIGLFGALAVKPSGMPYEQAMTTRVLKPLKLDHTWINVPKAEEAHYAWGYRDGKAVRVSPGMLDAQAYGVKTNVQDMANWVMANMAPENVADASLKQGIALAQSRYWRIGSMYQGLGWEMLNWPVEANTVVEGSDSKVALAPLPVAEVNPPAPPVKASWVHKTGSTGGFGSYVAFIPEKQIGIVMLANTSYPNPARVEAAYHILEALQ
Assay [4] concerns the target purified class A, C and D enzymes (β-lactamases) (Escherichia coli, UniProt Q9L5C7). Nature of the assay: biochemical. The assay is classed as biochemical. The note with it: purified CTX-M-14; nitrocefin (NCF) as reporter substrate.
Assay [5] addresses purified class A, C and D enzymes (β-lactamases) (Klebsiella pneumoniae, UniProt Q6XEC0). The experiment in a line: biochemical. The assay is classed as biochemical. As to conditions: purified OXA-48; nitrocefin (NCF) as reporter substrate.
Assay [6] has as its target purified class A, C and D enzymes (β-lactamases) (Klebsiella pneumoniae, UniProt Q9F663). The experiment in a line: biochemical. The assay is classed as biochemical. As to conditions: purified KPC-2; nitrocefin (NCF) as reporter substrate.
In assay [7] the target is T2, purified class A, C and D enzymes (β-lactamases) (Pseudomonas aeruginosa, UniProt P24735).
T2 construct: rows headed: Ki (Pa-AmpC, NCF), uM; other: purified Pa-AmpC; nitrocefin (NCF) as reporter substrate
T2 sequence (P24735 whole entry): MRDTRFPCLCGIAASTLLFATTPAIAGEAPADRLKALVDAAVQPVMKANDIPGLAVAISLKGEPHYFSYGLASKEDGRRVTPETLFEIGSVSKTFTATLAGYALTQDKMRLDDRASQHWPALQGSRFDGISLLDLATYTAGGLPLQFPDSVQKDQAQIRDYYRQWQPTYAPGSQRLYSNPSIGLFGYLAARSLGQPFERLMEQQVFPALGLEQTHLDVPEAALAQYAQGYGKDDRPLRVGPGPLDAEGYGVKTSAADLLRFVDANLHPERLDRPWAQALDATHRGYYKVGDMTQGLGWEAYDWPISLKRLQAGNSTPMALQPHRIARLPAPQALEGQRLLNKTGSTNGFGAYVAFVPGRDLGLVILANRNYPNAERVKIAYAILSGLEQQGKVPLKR
The experiment in a line: biochemical. The assay is classed as biochemical.

Another assay relates to ECL1002. The experiment in a line: Aztreonam potentiation (MPC@4), strain ECL1002. As to conditions: minimum BLI concentration inhibiting growth with aztreonam 4 μg/mL; tested up to 40 μg/mL.
For a further assay, the system named is ec308 SHV-5. Nature of the assay: Aztreonam potentiation (MPC@4), strain ec308 SHV-5. As to conditions: minimum BLI concentration inhibiting growth with aztreonam 4 μg/mL; tested up to 40 μg/mL.
The next assay relates to ec302 TEM-10. The experiment in a line: Aztreonam potentiation (MPC@4), strain ec302 TEM-10. The note with it: minimum BLI concentration inhibiting growth with aztreonam 4 μg/mL; tested up to 40 μg/mL.
The test system of assay [8] is KP1004 KPC-2. The experiment in a line: Aztreonam potentiation (MPC@4), strain KP1004 KPC-2. The note with it: minimum BLI concentration inhibiting growth with aztreonam 4 μg/mL; tested up to 40 μg/mL.
A further assay has as its system EC1010 CMY-6. Nature of the assay: Aztreonam potentiation (MPC@4), strain EC1010 CMY-6. The note with it: minimum BLI concentration inhibiting growth with aztreonam 4 μg/mL; tested up to 40 μg/mL.
The subject of a further assay is KP1010 SHV-12. The experiment in a line: Aztreonam potentiation (MPC@4), strain KP1010 SHV-12. The note with it: minimum BLI concentration inhibiting growth with aztreonam 4 μg/mL; tested up to 40 μg/mL.
Another assay relates to KP1009 CTX-M-15. Nature of the assay: Aztreonam potentiation (MPC@4), strain KP1009 CTX-M-15. As to conditions: minimum BLI concentration inhibiting growth with aztreonam 4 μg/mL; tested up to 40 μg/mL.
In the next assay the test system is KP1005 CTX-M-14. Nature of the assay: Tigemonam potentiation (MPC@4), strain KP1005 CTX-M-14. As to conditions: minimum BLI concentration inhibiting growth with tigemonam 4 μg/mL; tested up to 40 μg/mL.

Bounds are passed on as bounds.

Chain of purified class A, C and D enzymes (β-lactamases) (Escherichia coli, UniProt Q9L5C7) (Q9L5C7 entry or part of it): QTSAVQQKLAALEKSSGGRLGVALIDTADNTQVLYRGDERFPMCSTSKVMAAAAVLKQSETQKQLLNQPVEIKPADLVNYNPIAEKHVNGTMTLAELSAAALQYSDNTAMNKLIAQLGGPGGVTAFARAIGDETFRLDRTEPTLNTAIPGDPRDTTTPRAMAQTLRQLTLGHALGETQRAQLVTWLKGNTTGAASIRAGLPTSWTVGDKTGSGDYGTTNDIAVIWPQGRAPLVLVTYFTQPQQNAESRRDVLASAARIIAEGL
T1 sequence (Q9L4P2 whole entry): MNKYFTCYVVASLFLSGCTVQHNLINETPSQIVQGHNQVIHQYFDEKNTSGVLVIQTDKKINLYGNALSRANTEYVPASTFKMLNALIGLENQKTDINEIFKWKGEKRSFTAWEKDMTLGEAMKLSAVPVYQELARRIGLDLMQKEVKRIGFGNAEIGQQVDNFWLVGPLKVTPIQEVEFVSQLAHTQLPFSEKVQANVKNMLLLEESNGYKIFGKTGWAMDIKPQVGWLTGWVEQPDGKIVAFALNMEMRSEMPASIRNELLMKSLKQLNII

As for `O=C(O)c1c(-n2ccnn2)ccc2c1O[B-](O)(O)CC2` [Compound 13, Disodium; 4,4-dihydroxy-8-(triazol-1-yl)-5-oxa-4-boranuidabicyclo[4.4.0]deca-1(6),7,9-triene-7-carboxylate], the “BPM MPC1 KP1004 KPC-2” value with KP1004 KPC-2 [1] was “X (X = MPC@1 ≤ 5 μg/mL)”. Besides, the “BPM MPC1 OXA-48 KP1086” value in the assay with KP1086 OXA-48 is “X (X = MPC@1 ≤ 5 μg/mL)”. The “MPM MPC8 AB1053 OXA-72” value in the assay on AB1053 OXA-72 is recorded as “X (X = MPC@1 ≤ 5 μg/mL)”. Besides, the “MPM MPC8 AB1054 OXA-23” value in the assay with AB1054 OXA-23 was “X (X = MPC@1 ≤ 5 μg/mL)”. Further, the Ki in assay [2] and in assay [7] was below 100 nM each time. Also, the “Ki (P99, NCF), uM” value in assay [3] was “X (key: X = Ki ≤ 0.1 μM; Y = 0.1 μM < Ki ≤ 1 μM; Z = Ki > 1 μM)”. In addition, in assay [4], the “Ki (CTX-M-14, NCF), uM” value is “X (X = Ki ≤ 0.1 μM)”. Besides, the “Ki (OXA-48, NCF), uM” value in assay [5] is on record as “X (X = Ki ≤ 0.1 μM)”. Besides, the “Ki (KPC-2, NCF), uM” value in assay [6] is listed as “X (X = Ki ≤ 0.1 μM)”. Further, the “AZT MPC4 ECL1002” value in the assay with ECL1002 is reported as “X (X = MPC@4 ≤ 5 μg/mL)”. The “AZT MPC4 SHV-5 ec308” value in the assay on ec308 SHV-5 is recorded as “X (X = MPC@4 ≤ 5 μg/mL)”. Further, the “AZT MPC4 TEM-10 ec302” value in the assay with ec302 TEM-10 is “X (X = MPC@4 ≤ 5 μg/mL)”. Also, the “AZT MPC4 KPC-2 KP1004” value with KP1004 KPC-2 [8] is listed as “X (X = MPC@4 ≤ 5 μg/mL)”. The “AZT MPC4 CMY-6 EC1010” value with EC1010 CMY-6 was “X (X = MPC@4 ≤ 5 μg/mL)”. The “AZT MPC4 SHV-12 KP1010” value with KP1010 SHV-12 is recorded as “X (X = MPC@4 ≤ 5 μg/mL)”. Besides, the “AZT MPC4 CTX-M-15 KP1009” value with KP1009 CTX-M-15 is on record as “X (X = MPC@4 ≤ 5 μg/mL)”. For the same compound, the “TIG MPC4 CTX-M-14 KP1005” value in the assay with KP1005 CTX-M-14 was “X (X = MPC@4 ≤ 5 μg/mL)”.

As for `NCCc1cn(-c2ccc3c(c2C(=O)O)O[B-](O)(O)CC3)nn1` [Compound 14, Disodium; 8-[4-(2-aminoethyl)triazol-1-yl]-4,4-dihydroxy-5-oxa-4-boranuidabicyclo[4.4.0]deca-1(6),7,9-triene-7-carboxylate], the “BPM MPC1 KP1004 KPC-2” value with KP1004 KPC-2 [1] is reported as “X (X = MPC@1 ≤ 5 μg/mL)”. In addition, the “BPM MPC1 OXA-48 KP1086” value in the assay with KP1086 OXA-48 was “X (X = MPC@1 ≤ 5 μg/mL)”. In addition, the “MPM MPC8 AB1053 OXA-72” value in the assay with AB1053 OXA-72 is listed as “X (X = MPC@1 ≤ 5 μg/mL)”. For the same compound, in the assay on AB1054 OXA-23, the “MPM MPC8 AB1054 OXA-23” value was “X (X = MPC@1 ≤ 5 μg/mL)”. Also, the values for the Ki in assay [2] and in assay [7] were below 100 nM and above 1000 nM, respectively. In addition, the “Ki (P99, NCF), uM” value in [3] is “Y (key: X = Ki ≤ 0.1 μM; Y = 0.1 μM < Ki ≤ 1 μM; Z = Ki > 1 μM)”. In addition, the “Ki (CTX-M-14, NCF), uM” value in assay [4] was “X (X = Ki ≤ 0.1 μM)”. In addition, the “Ki (OXA-48, NCF), uM” value in assay [5] was “X (X = Ki ≤ 0.1 μM)”. In addition, in assay [6], the “Ki (KPC-2, NCF), uM” value was “X (X = Ki ≤ 0.1 μM)”. Besides, in the assay with ECL1002, the “AZT MPC4 ECL1002” value is “Z (Z = MPC@4 > 20 μg/mL)”. Further, the “AZT MPC4 SHV-5 ec308” value in the assay with ec308 SHV-5 is listed as “Y (Y = 5 μg/mL < MPC@4 ≤ 20 μg/mL)”. Besides, the “AZT MPC4 TEM-10 ec302” value in the assay with ec302 TEM-10 is on record as “Y (Y = 5 μg/mL < MPC@4 ≤ 20 μg/mL)”. For the same compound, the “AZT MPC4 KPC-2 KP1004” value with KP1004 KPC-2 [8] is listed as “X (X = MPC@4 ≤ 5 μg/mL)”. In addition, the “AZT MPC4 CMY-6 EC1010” value in the assay with EC1010 CMY-6 is listed as “Y (Y = 5 μg/mL < MPC@4 ≤ 20 μg/mL)”. Further, the “AZT MPC4 SHV-12 KP1010” value in the assay on KP1010 SHV-12 was “X (X = MPC@4 ≤ 5 μg/mL)”. Also, the “AZT MPC4 CTX-M-15 KP1009” value in the assay on KP1009 CTX-M-15 is reported as “Y (Y = 5 μg/mL < MPC@4 ≤ 20 μg/mL)”. The “TIG MPC4 CTX-M-14 KP1005” value with KP1005 CTX-M-14 was “Z (Z = MPC@4 > 20 μg/mL)”.

These data come from patent US10618918B2, “Substituted boronic acids as antimicrobials” (priority 2015, dated 2020).
